Data as given in ChEMBL document CHEMBL4020806, “Evaluation of the antiprotozoan properties of 5'-norcarbocyclic pyrimidine nucleosides” (Bioorg Med Chem Lett, 2017).
pEC50: −log10 of the molar value.

Tests used:
Format in all cases: functional
Trypanosoma brucei [1] = assay: Antiprotozoal activity against bloodstream form of wild type Trypanosoma brucei after 16 hrs by Alamar Blue assay
Trypanosoma brucei [2] = assay: Antiprotozoal activity against PYR6-5 deficient bloodstream form of 5-FU hypersensitive Trypanosoma brucei after 16 hrs by Alamar Blue assay
Trypanosoma brucei [3] = assay: Resistance factor, ratio of EC50 for multi-drug resistant Trypanosoma brucei B48 to EC50 for wild type Trypanosoma brucei
Trypanosoma brucei [4] = assay: Antiprotozoal activity against bloodstream form of 5FU resistant Trypanosoma brucei after 16 hrs by Alamar Blue assay
Trypanosoma brucei [5] = assay: Resistance factor, ratio of EC50 for PYR6-5 deficient bloodstream form of 5-FU hypersensitive Trypanosoma brucei to EC50 for wild type Trypanosoma brucei
Leishmania mexicana [6] = assay: Antileishmanial activity against wild type Leishmania mexicana after 16 hrs by Alamar Blue assay
Trypanosoma brucei [7] = assay: Resistance factor, ratio of EC50 for 5FU resistant Trypanosoma brucei to EC50 for wild type Trypanosoma brucei
Leishmania mexicana [8] = assay: Antileishmanial activity against 5FU resistant Leishmania mexicana after 16 hrs by Alamar Blue assay
Trypanosoma brucei [9] = assay: Antiprotozoal activity against bloodstream form of multi-drug resistant Trypanosoma brucei B48 after 16 hrs by Alamar Blue assay; conditions: B48, 16 h
Leishmania mexicana [10] = assay: Resistance factor, ratio of EC50 for 5FU resistant Leishmania mexicana to EC50 for wild type Leishmania mexicana

SMILES | pEC50 (Trypanosoma brucei [1]) | pEC50 (Trypanosoma brucei [2]) | Ratio EC50 (Trypanosoma brucei [3]) | pEC50 (Trypanosoma brucei [4]) | Ratio EC50 (Trypanosoma brucei [5]) | pEC50 (Leishmania mexicana [6]) | Ratio EC50 (Trypanosoma brucei [7]) | pEC50 (Leishmania mexicana [8]) | pEC50 (Trypanosoma brucei [9]) | Ratio EC50 (Leishmania mexicana [10])
O=c1[nH]c(=O)n([C@H]2C=C[C@@H](O)C2)cc1Nc1ccccc1 | 4.55 | 4.67 | 1.1 | 4.86 | 0.76 | 4.03 | 0.49 | 4.02 | 4.52 | 1.01
Cc1cc(C)cc(Cn2c(=O)ccn([C@H]3C=C[C@@H](OC(=O)c4ccccc4)C3)c2=O)c1 | 4.82 | 4.80 | 1 | 4.91 | 1.05 | 4.38 | 0.82 | 4.41 | 4.80 | 0.94
Cc1cc(C)cc(C(=O)O[C@@H]2C=C[C@H](n3ccc(=O)n(C(=O)c4cc(C)cc(C)c4)c3=O)C2)c1 | 4.62 | 4.61 | 0.9 | 4.69 | 1.03 | 4.41 | 0.85 | 4.63 | 4.66 | 0.61
O=c1[nH]c(=O)n([C@H]2C=C[C@@H](O)C2)cc1Br | 4.43 | 4.45 | 1 | 4.49 | 0.96 | 4.01 | 0.87 | 4.01 | 4.44 | 1
O=C(O[C@@H]1C=C[C@H](n2cc(Br)c(=O)[nH]c2=O)C1)c1ccccc1 | 4.53 | 4.60 | 0.8 | 4.75 | 0.85 | 4.04 | 0.59 | 4.04 | 4.62 | 1.02
COc1ccc(Cn2c(=O)cc(C)n([C@H]3C=C[C@@H](OC(=O)c4ccccc4)C3)c2=O)cc1 | 4.52 | 4.55 | 0.9 | 4.69 | 0.93 | 4.47 | 0.66 | 4.36 | 4.57 | 1.29
N#Cc1cccc(C(=O)O[C@@H]2C=C[C@H](n3ccc(=O)[nH]c3=O)C2)c1 | 4.42 | 4.46 | 1 | 4.50 | 0.92 | 4.02 | 0.83 | 4.02 | 4.44 | 1.02
Cc1ccc(Nc2cn([C@H]3C=C[C@@H](O)C3)c(=O)[nH]c2=O)cc1 | 4.50 | 4.61 | 1 | 4.77 | 0.78 | 4.02 | 0.54 | 4.01 | 4.51 | 1.02
O=C(O[C@@H]1C=C[C@H](n2ccc(=O)[nH]c2=O)C1)c1cc(Cl)cc(Cl)c1 | 4.48 | 4.50 | 1 | 4.57 | 0.95 | 4.09 | 0.8 | 4.05 | 4.46 | 1.1
O=C(O[C@@H]1C=C[C@H](n2ccc(=O)n(Cc3ccccc3)c2=O)C1)c1ccccc1 | 4.54 | 4.56 | 0.9 | 4.68 | 0.95 | 4.46 | 0.72 | 4.33 | 4.59 | 1.34
N#Cc1cccc(C(=O)O[C@@H]2C=C[C@H](n3ccc(=O)n(Cc4ccccc4)c3=O)C2)c1 | 4.55 | 4.58 | 0.9 | 4.67 | 0.94 | 4.34 | 0.76 | 4.28 | 4.60 | 1.16
CCCCCCCCCCCCC#Cc1cn([C@H]2C=C[C@@H](O)C2)c(=O)n([C@H]2C=C[C@@H](O)C2)c1=O | 5.10 | 5.04 | 1.1 | 5.12 | 1.15 | 4.93 | 0.94 | 4.94 | 5.05 | 0.97
Cc1cc(=O)[nH]c(=O)n1[C@H]1C=C[C@@H](O)C1 | 4.45 | 4.49 | 1.1 | 4.54 | 0.92 | 4.01 | 0.82 | 3.99 | 4.41 | 1.04
Cc1cc(=O)[nH]c(=O)n1[C@H]1C=C[C@@H](OC(=O)c2ccccc2)C1 | 4.42 | 4.46 | 1 | 4.49 | 0.91 | 4.03 | 0.85 | 4.02 | 4.42 | 1.01
Cc1cc(=O)n(C(=O)c2ccccc2)c(=O)n1[C@H]1C=C[C@@H](OC(=O)c2ccccc2)C1 | 4.48 | 4.49 | 1 | 4.56 | 0.98 | 4.58 | 0.84 | 4.65 | 4.47 | 0.86
O=c1[nH]c(=O)n([C@H]2C=C[C@@H](O)C2)cc1I | 4.45 | 4.47 | 1 | 4.51 | 0.95 | 4.02 | 0.87 | 4.02 | 4.44 | 1
O=C(O[C@@H]1C=C[C@H](n2ccc(=O)[nH]c2=O)C1)c1ccccc1 | 4.42 | 4.45 | 1 | 4.49 | 0.93 | 4.02 | 0.84 | 4.02 | 4.42 | 1.01
Cc1cc(C)cc(Cn2c(=O)cc(C)n([C@H]3C=C[C@@H](OC(=O)c4ccccc4)C3)c2=O)c1 | 4.82 | 4.81 | 0.9 | 4.84 | 1.03 | 4.59 | 0.95 | 4.55 | 4.85 | 1.11
Cc1cc(C)cc(C(=O)O[C@@H]2C=C[C@H](n3ccc(=O)n(Cc4ccccc4)c3=O)C2)c1 | 5.07 | 4.95 | 1 | 5.06 | 1.29 | 4.50 | 1.01 | 4.60 | 5.06 | 0.79
O=c1ccn([C@H]2C=C[C@@H](O)C2)c(=O)[nH]1 | 4.42 | 4.46 | 1 | 4.50 | 0.92 | 4.01 | 0.85 | 4.01 | 4.42 | 1.01
O=C(O[C@@H]1C=C[C@H](n2ccc(=O)n(C(=O)c3cc(Cl)cc(Cl)c3)c2=O)C1)c1cc(Cl)cc(Cl)c1 | 4.50 | 4.53 | 1.1 | 4.60 | 0.93 | 4.05 | 0.79 | 4.04 | 4.47 | 1.03
O=c1[nH]cc(F)c(=O)[nH]1 [FLUOROURACIL] | 4.18 | 5.64 | 1.1 | 2.41 | 0.034 | 5.11 | 59.17 | 2.61 | 4.13 | 322
N=C(N)c1ccc(OCCCCCOc2ccc(C(=N)N)cc2)cc1 [PENTAMIDINE] | 8.24 | 8.29 | 164 | 8.21 | 0.89 | 5.72 | 1.06 | 5.79 | 6.03 | 0.86
